The source of these data is the supplement of paper PMC11208160.
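Note: IS621 recombinase and bridge RNA in Escherichia coli cells.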

A short description of this series: recombinant barcode read abundance after kanamycin selection (control-corrected) (log10(CPM+1)); higher = more efficient recombination; sequences stand for … in AGTGCAGAGAAAATCGGCCAGTTTTCTCTGCCTGCAGTCCGCATGCCGT…AGATTTATGCAGCGGACTGCCTTTCTCCCAAAGTGATAAACCGGACAGTATCATGGACCGGTTTTCCCGGTAATCCGTATTTGCAAGGTTGGTTTCACT; site = the 11-nt target. Summed up: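 In a pooled screen in E. coli, targets were paired with target-binding loops of the IS621 bridge RNA. Each oligo carried a promoter, a target, a barcode and the first 104 bridge RNA bases driven by J23119, and was Gibson-cloned into a vector holding the remaining 73 bp and a T7-inducible recombinase before co-electroporation with a donor plasmid. Duplicate platings went onto chloramphenicol/ampicillin LB agar as the control or onto chloramphenicol/ampicillin/kanamycin with 0.1 mM IPTG. Recombination efficiency is the averaged, control-corrected count per million of barcodes at recombinant junctions, given as log10(CPM+1).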
“CTTGGAGCTTGGGTTCTAACCTGTTGCCT (site CTTGGAACTAG)”: the “recombinant barcode read abundance (log10)” value was determined as 0.365.

On to “CTTGGAGCTTGGGTTCTAACCTGTTGCCT (site CTTGGACCTAG)”, for which the “recombinant barcode read abundance (log10)” value came to 0.247.

For the sequence “CTTGGAGCTTGGGTTCTAACCTGTTGCCT (site CTTGGAGCTAG)”, the “recombinant barcode read abundance (log10)” value is 1.61.

Regarding “CTTGGAGCTTGGGTTCTAACCTGTTGCCT (site CTTGGATCTAG)”, the “recombinant barcode read abundance (log10)” value amounted to 0.145.

With “CTTGGGTCTTGGGTTCTAACCTGTTGCAT (site CTTGGGTCTAT)”, the “recombinant barcode read abundance (log10)” value is 2.72.

For “CTTGGGTCTTGGGTTCTAACCTGTTGCAT (site TCCCATACTTC)”, the “recombinant barcode read abundance (log10)” value is 0.0573.

For the sequence “CTTGGTTCTTGGGTTCTAACCTGTTGCTT (site CTGGGTCCTAA)”, the “recombinant barcode read abundance (log10)” value was 0.0304.

“CTTGGTTCTTGGGTTCTAACCTGTTGCTT (site CTTGGTTCTAA)”: the “recombinant barcode read abundance (log10)” value was 0.809.

Turning to “GAAAACACTTGGGTTCTAACCTGTTGCCT (site GAAAACACTAG)”, the “recombinant barcode read abundance (log10)” value amounted to 1.18.

For “GAAAACACTTGGGTTCTAACCTGTTGCCT (site GAAGAGACTAG)”, the “recombinant barcode read abundance (log10)” value was determined as 0.0433.

For “GAAAAGGCTTGGGTTCTAACCTGTTGCCT (site GAAAAGGCTAG)”, the “recombinant barcode read abundance (log10)” value was determined as 0.804.

As to “GAAAAGGCTTGGGTTCTAACCTGTTGCCT (site GAAACGGCTAG)”, the “recombinant barcode read abundance (log10)” value came out at 0.105.

“GAAAAGGCTTGGGTTCTAACCTGTTGCCT (site GAAAGGGCTAG)”: the “recombinant barcode read abundance (log10)” value is 0.0324.

On to “GAAAAGGCTTGGGTTCTAACCTGTTGCCT (site GAAATGGCTAG)”, for which the “recombinant barcode read abundance (log10)” value was 0.206.

As to “GAAACGTCTTGGGTTCTAACCTGTTGCCT (site GAAACGTCTAG)”, the “recombinant barcode read abundance (log10)” value was 1.65.

Consider “GAAACGTCTTGGGTTCTAACCTGTTGCCT (site GACAAGTCTAG)”, for which the “recombinant barcode read abundance (log10)” value stood at 0.0765.

Consider “GAAACTCCTTGGGTTCTAACCTGTTGCCT (site GAAAATCCTAG)”, for which the “recombinant barcode read abundance (log10)” value worked out at 0.13.

Regarding “GAAACTCCTTGGGTTCTAACCTGTTGCCT (site GAAACTCCTAG)”, the “recombinant barcode read abundance (log10)” value came out at 0.352.

Regarding “GAAACTCCTTGGGTTCTAACCTGTTGCCT (site GAAAGTCCTAG)”, the “recombinant barcode read abundance (log10)” value is 0.235.

For “GAAACTCCTTGGGTTCTAACCTGTTGCCT (site GAAATTCCTAG)”, the “recombinant barcode read abundance (log10)” value is 0.0462.

With “GAAATGACTTGGGTTCTAACCTGTTGCCT (site GAAATGACTAG)”, the “recombinant barcode read abundance (log10)” value worked out at 0.908.

For “GAAATGACTTGGGTTCTAACCTGTTGCCT (site GCAATGACTAG)”, the “recombinant barcode read abundance (log10)” value stood at 0.152.

Take “GAAATGACTTGGGTTCTAACCTGTTGCCT (site GGAATGACTAG)”: the “recombinant barcode read abundance (log10)” value is 0.066.

Take “GAAATGACTTGGGTTCTAACCTGTTGCCT (site GTAATGACTAG)”: the “recombinant barcode read abundance (log10)” value came out at 0.202.

Regarding “GAACCTTCTTGGGTTCTAACCTGTTGCGG (site GAACCTTCTCC)”, the “recombinant barcode read abundance (log10)” value stood at 0.93.

For “GAACCTTCTTGGGTTCTAACCTGTTGCGG (site TTCTACACTAT)”, the “recombinant barcode read abundance (log10)” value is 0.0281.

Turning to “GAACGACCTTGGGTTCTAACCTGTTGCCT (site AAACGACCTAG)”, the “recombinant barcode read abundance (log10)” value came to 0.331.

As to “GAACGACCTTGGGTTCTAACCTGTTGCCT (site CAACGACCTAG)”, the “recombinant barcode read abundance (log10)” value was found to be 0.0122.

On to “GAACGACCTTGGGTTCTAACCTGTTGCCT (site GAACGACCTAG)”, for which the “recombinant barcode read abundance (log10)” value came out at 0.721.

As for “GAACGACCTTGGGTTCTAACCTGTTGCCT (site TAACGACCTAG)”, the “recombinant barcode read abundance (log10)” value worked out at 0.144.

As for “GAACTCCCTTGGGTTCTAACCTGTTGCGG (site GAACTCCCTCC)”, the “recombinant barcode read abundance (log10)” value amounted to 0.758.

Take “GAACTCCCTTGGGTTCTAACCTGTTGCGG (site TGTTGGTCTAA)”: the “recombinant barcode read abundance (log10)” value amounted to 0.0984.

With “GAACTCTCTTGGGTTCTAACCTGTTGCTA (site CCTAAAACTAG)”, the “recombinant barcode read abundance (log10)” value stood at 0.0469.

For “GAACTCTCTTGGGTTCTAACCTGTTGCTA (site GAACTCTCTTA)”, the “recombinant barcode read abundance (log10)” value was determined as 1.66.

In the case of “GAACTGTCTTGGGTTCTAACCTGTTGCCA (site GAACTGTCTTG)”, the “recombinant barcode read abundance (log10)” value was determined as 0.995.

As for “GAACTGTCTTGGGTTCTAACCTGTTGCCA (site GTACTCTCTTG)”, the “recombinant barcode read abundance (log10)” value is 0.0913.

As for “GAAGAGCCTTGGGTTCTAACCTGTTGCCT (site GAAGAGCCTAG)”, the “recombinant barcode read abundance (log10)” value turned out to be 2.62.

For the sequence “GAAGAGCCTTGGGTTCTAACCTGTTGCCT (site GAAGCGCCTAG)”, the “recombinant barcode read abundance (log10)” value is 0.189.

In the case of “GAAGAGCCTTGGGTTCTAACCTGTTGCCT (site GAAGGGCCTAG)”, the “recombinant barcode read abundance (log10)” value came to 0.0404.

With “GAAGAGCCTTGGGTTCTAACCTGTTGCCT (site GAAGTGCCTAG)”, the “recombinant barcode read abundance (log10)” value came to 0.0759.

As for “GAAGAGGCTTGGGTTCTAACCTGTTGCCA (site GAAGAGGCTTG)”, the “recombinant barcode read abundance (log10)” value is 0.536.

In the case of “GAAGAGGCTTGGGTTCTAACCTGTTGCCA (site TGTCTCCCTAC)”, the “recombinant barcode read abundance (log10)” value was determined as 0.115.

Regarding “GAAGCCGCTTGGGTTCTAACCTGTTGCCT (site GAAGACGCTAG)”, the “recombinant barcode read abundance (log10)” value was 0.0292.

For the sequence “GAAGCCGCTTGGGTTCTAACCTGTTGCCT (site GAAGCCGCTAG)”, the “recombinant barcode read abundance (log10)” value turned out to be 2.26.

With “GAAGCCGCTTGGGTTCTAACCTGTTGCCT (site GAAGGCGCTAG)”, the “recombinant barcode read abundance (log10)” value stood at 0.16.

For “GAAGCCGCTTGGGTTCTAACCTGTTGCCT (site GAAGTCGCTAG)”, the “recombinant barcode read abundance (log10)” value was 0.302.

For the sequence “GAAGGAGCTTGGGTTCTAACCTGTTGCAG (site ATGCCTCCTAA)”, the “recombinant barcode read abundance (log10)” value worked out at 0.0306.

As to “GAAGGAGCTTGGGTTCTAACCTGTTGCAG (site GAAGGAGCTCT)”, the “recombinant barcode read abundance (log10)” value was determined as 1.51.

Take “GAAGGGACTTGGGTTCTAACCTGTTGCCT (site GAAGGGACTAG)”: the “recombinant barcode read abundance (log10)” value was determined as 2.11.

Regarding “GAAGGGACTTGGGTTCTAACCTGTTGCCT (site GCAGGGACTAG)”, the “recombinant barcode read abundance (log10)” value was determined as 0.236.

For “GAAGGGACTTGGGTTCTAACCTGTTGCCT (site GGAGGGACTAG)”, the “recombinant barcode read abundance (log10)” value stood at 0.585.

With “GAAGGGACTTGGGTTCTAACCTGTTGCCT (site GTAGGGACTAG)”, the “recombinant barcode read abundance (log10)” value was found to be 1.52.

Take “GAAGTCGCTTGGGTTCTAACCTGTTGCCT (site GAAGACGCTAG)”: the “recombinant barcode read abundance (log10)” value is 0.187.

In the case of “GAAGTCGCTTGGGTTCTAACCTGTTGCCT (site GAAGCCGCTAG)”, the “recombinant barcode read abundance (log10)” value came to 0.508.

On to “GAAGTCGCTTGGGTTCTAACCTGTTGCCT (site GAAGGCGCTAG)”, for which the “recombinant barcode read abundance (log10)” value turned out to be 0.

Take “GAAGTCGCTTGGGTTCTAACCTGTTGCCT (site GAAGTCGCTAG)”: the “recombinant barcode read abundance (log10)” value came out at 1.78.

Take “GAATATTCTTGGGTTCTAACCTGTTGCCT (site GAATATTCTAG)”: the “recombinant barcode read abundance (log10)” value was 0.739.

On to “GAATATTCTTGGGTTCTAACCTGTTGCCT (site GACTATTCTAG)”, for which the “recombinant barcode read abundance (log10)” value stood at 0.0547.

As for “GAATATTCTTGGGTTCTAACCTGTTGCCT (site GAGTATTCTAG)”, the “recombinant barcode read abundance (log10)” value amounted to 0.136.
